Experimental data as given in patent US10760110B2, “Antibiotic testing and screening system” (priority 2017, dated 2020).
Read-outs that look alike come from different tables or passages of the source.

System: K. pneumoniae NVT1001 strains with ESBL or AmpC β-lactamase plasmids
Experiment: Etest MIC of β-lactams, OmpK35/36 loss, ΔramR and/or extended-spectrum β-lactamase and AmpC β-lactamase (Table 8)
Assay type: cell-based, Klebsiella pneumoniae
Details: Klebsiella pneumoniae
Experimental: DNA fragments of the resistance genes along with their flanking regions were amplified from clinical plasmids via PCR with specific primer pairs. The resulting PCR fragments were digested and then cloned into the plasmid pACYC177 or pACYC184. The resulting plasmids were then transformed into K. pneumoniae strain NVT1001 via electroporation. The recombinant bacteria were plated onto LB agar plates containing kanamycin (50 mg/L) or chloramphenicol (50 mg/L), and the presence of the cloned gene was confirmed via PCR and DNA sequencing.
The MICs of antibiotics were determined using the Etest (Biodisk AB, Sweden) according to the manufacturer's instructions. The MICs from the Etest, which fall between standard two-fold dilutions, were rounded up to the next highest two-fold value. The MICs of ceftazidime and cefotaxime against K. pneumoniae NVT1001 harbouring the pACYC177 plasmid with blaOXA-48 were further determined using a broth microdilution test according to the recommendations of the CLSI,^25 and the results were interpreted according to the breakpoints established by the CLSI in 2017.^25 Meanwhile, due to the lack of CLSI breakpoints in 2016 and 2017, the results for cephalothin were interpreted according to the breakpoints established by the CLSI in 2015,^26 and the results for moxifloxacin were interpreted according to the breakpoints established by the EUCAST in 2017.^27

[1] = CMY-2 on pACYC177, WT (NVT1001), read-out: MIC
[2] = CMY-2 on pACYC177, Δ35 (ΔompK35 mutant)
[3] = CMY-2 on pACYC177, Δ35/36 (ΔompK35/36 mutant)
[4] = CMY-2 on pACYC177, Δ36 (ΔompK36 mutant)
[5] = CMY-2 on pACYC177, ΔramR mutant
[6] = CMY-2 on pACYC177, ΔramRΔ35 (ΔramRΔompK35 mutant)
[7] = CMY-2 on pACYC177, ΔramRΔ35/36 (ΔramRΔompK35/36 mutant)
[8] = CMY-2 on pACYC177, ΔramRΔ36 (ΔramRΔompK36 mutant)
[9] = CTX-M-14 on pACYC177, WT (NVT1001), read-out: MIC
[10] = CTX-M-14 on pACYC177, Δ35 (ΔompK35 mutant)
[11] = CTX-M-14 on pACYC177, Δ35/36 (ΔompK35/36 mutant)
[12] = CTX-M-14 on pACYC177, Δ36 (ΔompK36 mutant)
[13] = CTX-M-14 on pACYC177, ΔramR mutant
[14] = CTX-M-14 on pACYC177, ΔramRΔ35 (ΔramRΔompK35 mutant)
[15] = CTX-M-14 on pACYC177, ΔramRΔ35/36 (ΔramRΔompK35/36 mutant)
[16] = CTX-M-14 on pACYC177, ΔramRΔ36 (ΔramRΔompK36 mutant)
[17] = CTX-M-15 on pACYC177, WT (NVT1001), read-out: MIC
[18] = CTX-M-15 on pACYC177, Δ35 (ΔompK35 mutant)
[19] = CTX-M-15 on pACYC177, Δ35/36 (ΔompK35/36 mutant)
[20] = CTX-M-15 on pACYC177, Δ36 (ΔompK36 mutant)
[21] = CTX-M-15 on pACYC177, ΔramR mutant
[22] = CTX-M-15 on pACYC177, ΔramRΔ35 (ΔramRΔompK35 mutant)
[23] = CTX-M-15 on pACYC177, ΔramRΔ35/36 (ΔramRΔompK35/36 mutant)
[24] = CTX-M-15 on pACYC177, ΔramRΔ36 (ΔramRΔompK36 mutant)
[25] = DHA-1-AmpR on pACYC177, WT (NVT1001), read-out: MIC
[26] = DHA-1-AmpR on pACYC177, Δ35 (ΔompK35 mutant)
[27] = DHA-1-AmpR on pACYC177, Δ35/36 (ΔompK35/36 mutant)
[28] = DHA-1-AmpR on pACYC177, Δ36 (ΔompK36 mutant)
[29] = DHA-1-AmpR on pACYC177, ΔramR mutant
[30] = DHA-1-AmpR on pACYC177, ΔramRΔ35 (ΔramRΔompK35 mutant)
[31] = DHA-1-AmpR on pACYC177, ΔramRΔ35/36 (ΔramRΔompK35/36 mutant)
[32] = DHA-1-AmpR on pACYC177, ΔramRΔ36 (ΔramRΔompK36 mutant)
[33] = SHV-12 on pACYC177, WT (NVT1001), read-out: MIC
[34] = SHV-12 on pACYC177, Δ35 (ΔompK35 mutant)
[35] = SHV-12 on pACYC177, Δ35/36 (ΔompK35/36 mutant)
[36] = SHV-12 on pACYC177, Δ36 (ΔompK36 mutant)
[37] = SHV-12 on pACYC177, ΔramR mutant
[38] = SHV-12 on pACYC177, ΔramRΔ35 (ΔramRΔompK35 mutant)
[39] = SHV-12 on pACYC177, ΔramRΔ35/36 (ΔramRΔompK35/36 mutant)
[40] = SHV-12 on pACYC177, ΔramRΔ36 (ΔramRΔompK36 mutant)
[41] = no supplemental plasmid, WT (NVT1001), read-out: MIC
[42] = no supplemental plasmid, Δ35 (ΔompK35 mutant)
[43] = no supplemental plasmid, Δ35/36 (ΔompK35/36 mutant)
[44] = no supplemental plasmid, Δ36 (ΔompK36 mutant)
[45] = no supplemental plasmid, ΔramR mutant
[46] = no supplemental plasmid, ΔramRΔ35 (ΔramRΔompK35 mutant)
[47] = no supplemental plasmid, ΔramRΔ35/36 (ΔramRΔompK35/36 mutant)
[48] = no supplemental plasmid, ΔramRΔ36 (ΔramRΔompK36 mutant)

Measured: MIC

CCO/N=C(\C(=O)N[C@@H]1C(=O)N2C(C(=O)[O-])=C(Sc3nc(-c4cc[n+](C)cc4)cs3)CS[C@H]12)c1nsc(N)n1 [Ceftaroline]
64 µg/mL: [1] | [2] | [5] | [6] | [35]
0.25 µg/mL: [41] | [42]
> 256 µg/mL: [3] | [10] | [11] | [12] | [13] | [14] | [15] | [16] | [17] | [18] | [19] | [20] | [21] | [22] | [23] | [24]
256 µg/mL: [4] | [8]
16 µg/mL: [27] | [31] | [32] | [33] | [34] | [36] | [37] | [38]
8 µg/mL: [25] | [26] | [28] | [29] | [30]
128 µg/mL: [7] | [9]
0.5 µg/mL: [44]
4 µg/mL: [47] | [48]
1 µg/mL: [43] | [45] | [46]
32 µg/mL: [39] | [40]

CC(C)(O/N=C(\C(=O)N[C@@H]1C(=O)N2C(C(=O)[O-])=C(C[n+]3ccccc3)CS[C@H]12)c1csc(N)n1)C(=O)O [Ceftazidime]
128 µg/mL: [26] | [31] | [36]
8 µg/mL: [11] | [13] | [14] | [16]
1 µg/mL: [9] | [43]
64 µg/mL: [17] | [20] | [29] | [30] | [32] | [33]
2 µg/mL: [12] | [45] | [46] | [47] | [48]
32 µg/mL: [28]
256 µg/mL: [21]
4 µg/mL: [10]
0.5 µg/mL: [42] | [44]
16 µg/mL: [15] | [25]
0.25 µg/mL: [41]
> 256 µg/mL: [1] | [2] | [3] | [4] | [5] | [6] | [7] | [8] | [18] | [19] | [22] | [23] | [24] | [27] | [34] | [35] | [37] | [38] | [39] | [40]

CO/N=C(\C(=O)N[C@@H]1C(=O)N2C(C(=O)O)=C(COC(N)=O)CS[C@H]12)c1ccco1 [Cefuroxime]
8 µg/mL: [42]
32 µg/mL: [43] | [45]
> 256 µg/mL: [3] | [4] | [5] | [6] | [7] | [8] | [9] | [10] | [11] | [12] | [13] | [14] | [15] | [16] | [17] | [18] | [19] | [20] | [21] | [22] | [23] | [24] | [25] | [26] | [27] | [28] | [29] | [30] | [31] | [32] | [35] | [39] | [40] | [48]
16 µg/mL: [44]
4 µg/mL: [41]
256 µg/mL: [1] | [2] | [37]
64 µg/mL: [33] | [34] | [46]
128 µg/mL: [36] | [38] | [47]
